# Laboratory results reported in PubChem BioAssay AID1919002 (Molecular Pharmacology Branch, DTP, NCI, 2023).
# Tested on: 743489-274-T-PDC complex spheroid growth
# Experiment: Anticancer human tumor 743489-274-T-PDC patient-derived renal cell carcinoma cell line growth inhibition [AhR]
# Conditions: for IC50: curve of first compound; for viability, T/C: stronger effect = lower value
# Method in brief: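 Agents were dosed in half-log steps down from roughly clinical Cmax, or from 10 microM where Cmax was unknown, alone and with AhR antagonists. Read-out: percent test/control growth of tumor spheroids containing HUVEC and MSC stromal cells.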
# [1] = second compound 0.1 µM, first compound 0.0316 µM
# [2] = second compound 0.1 µM, first compound 0.1 µM
# [3] = second compound 0.1 µM, first compound 0.316 µM
# [4] = second compound 0.1 µM, first compound 1 µM
# [5] = second compound 0.1 µM, first compound 3.16 µM
# [6] = second compound 0.1 µM, first compound 10 µM
# [7] = second compound 0.316 µM, first compound 0.0316 µM
# [8] = second compound 0.316 µM, first compound 0.1 µM
# [9] = second compound 0.316 µM, first compound 0.316 µM
# [10] = second compound 0.316 µM, first compound 1 µM
# [11] = second compound 0.316 µM, first compound 3.16 µM
# [12] = second compound 0.316 µM, first compound 10 µM
# [13] = second compound 1 µM, first compound 0.0316 µM
# [14] = second compound 1 µM, first compound 0.1 µM
# [15] = second compound 1 µM, first compound 0.316 µM
# [16] = second compound 1 µM, first compound 1 µM
# [17] = second compound 1 µM, first compound 3.16 µM
# [18] = second compound 1 µM, first compound 10 µM
# [19] = second compound 3.16 µM, first compound 0.0316 µM
# [20] = second compound 3.16 µM, first compound 0.1 µM
# [21] = second compound 3.16 µM, first compound 0.316 µM
# [22] = second compound 3.16 µM, first compound 1 µM
# [23] = second compound 3.16 µM, first compound 3.16 µM
# [24] = second compound 3.16 µM, first compound 10 µM
# [25] = second compound 10 µM, first compound 0.0316 µM
# [26] = second compound 10 µM, first compound 0.1 µM
# [27] = second compound 10 µM, first compound 0.316 µM
# [28] = second compound 10 µM, first compound 1 µM
# [29] = second compound 10 µM, first compound 3.16 µM
# [30] = second compound 10 µM, first compound 10 µM
# [31] = second compound 0.1 µM, first compound 0.00949 µM
# [32] = second compound 0.1 µM, first compound 0.03 µM
# [33] = second compound 0.1 µM, first compound 0.0949 µM
# [34] = second compound 0.1 µM, first compound 0.3 µM
# [35] = second compound 0.316 µM, first compound 0.00949 µM
# [36] = second compound 0.316 µM, first compound 0.03 µM
# [37] = second compound 0.316 µM, first compound 0.0949 µM
# [38] = second compound 0.316 µM, first compound 0.3 µM
# [39] = second compound 1 µM, first compound 0.00949 µM
# [40] = second compound 1 µM, first compound 0.03 µM
# [41] = second compound 1 µM, first compound 0.0949 µM
# [42] = second compound 1 µM, first compound 0.3 µM
# [43] = second compound 3.16 µM, first compound 0.00949 µM
# [44] = second compound 3.16 µM, first compound 0.03 µM
# [45] = second compound 3.16 µM, first compound 0.0949 µM
# [46] = second compound 3.16 µM, first compound 0.3 µM
# [47] = second compound 10 µM, first compound 0.00949 µM
# [48] = second compound 10 µM, first compound 0.03 µM
# [49] = second compound 10 µM, first compound 0.0949 µM
# [50] = second compound 10 µM, first compound 0.3 µM
# 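Also: spheroids exposed to agents for 7 days before readout.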
# 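For viability, T/C in this document: 100% = DMSO vehicle control wells.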
smiles,measurement,setting,value
CC1(C)CCC(CN2CCN(c3ccc(C(=O)NS(=O)(=O)c4ccc(NCC5CCOCC5)c([N+](=O)[O-])c4)c(Oc4cnc5[nH]ccc5c4)c3)CC2)=C(c2ccc(Cl)cc2)C1 + Cc1ccccc1N=Nc1ccc(NC(=O)c2ccnn2C)c(C)c1,IC50,second compound 0.1 µM,> 10 µM
same,IC50,second compound 0.316 µM,> 10 µM
same,IC50,second compound 1 µM,> 10 µM
same,IC50,second compound 3.16 µM,> 10 µM
same,IC50,second compound 10 µM,> 10 µM
same,"viability, T/C",[1],91.9%
same,"viability, T/C",[2],92.9%
same,"viability, T/C",[3],93.9%
same,"viability, T/C",[4],94.7%
same,"viability, T/C",[5],96.1%
same,"viability, T/C",[6],94.3%
same,"viability, T/C",[7],95.7%
same,"viability, T/C",[8],94.9%
same,"viability, T/C",[9],97.5%
same,"viability, T/C",[10],81.8%
same,"viability, T/C",[11],87.5%
same,"viability, T/C",[12],81.6%
same,"viability, T/C",[13],89.8%
same,"viability, T/C",[14],88.4%
same,"viability, T/C",[15],99.6%
same,"viability, T/C",[16],99.2%
same,"viability, T/C",[17],89.1%
same,"viability, T/C",[18],78.3%
same,"viability, T/C",[19],90.1%
same,"viability, T/C",[20],91%
same,"viability, T/C",[21],93.8%
same,"viability, T/C",[22],85.6%
same,"viability, T/C",[23],75.5%
same,"viability, T/C",[24],81.8%
same,"viability, T/C",[25],84.8%
same,"viability, T/C",[26],85.2%
same,"viability, T/C",[27],90.1%
same,"viability, T/C",[28],80%
same,"viability, T/C",[29],104%
same,"viability, T/C",[30],82.1%
CC1COCCN1c1cc(C2(S(C)(=N)=O)CC2)nc(-c2ccnc3[nH]ccc23)n1 (stereo not given) + Cc1ccccc1N=Nc1ccc(NC(=O)c2ccnn2C)c(C)c1,IC50,second compound 0.1 µM,> 10 µM
same,IC50,second compound 0.316 µM,> 10 µM
same,IC50,second compound 1 µM,> 10 µM
same,IC50,second compound 3.16 µM,> 10 µM
same,IC50,second compound 10 µM,> 10 µM
same,"viability, T/C",[1],92.1%
same,"viability, T/C",[2],101%
same,"viability, T/C",[3],92.2%
same,"viability, T/C",[4],97.3%
same,"viability, T/C",[5],98.8%
same,"viability, T/C",[6],102%
same,"viability, T/C",[7],99%
same,"viability, T/C",[8],87.6%
same,"viability, T/C",[9],109%
same,"viability, T/C",[10],88.4%
same,"viability, T/C",[11],86.8%
same,"viability, T/C",[12],99.1%
same,"viability, T/C",[13],104%
same,"viability, T/C",[14],99.4%
same,"viability, T/C",[15],95.8%
same,"viability, T/C",[16],88%
same,"viability, T/C",[17],88.4%
same,"viability, T/C",[18],81.5%
same,"viability, T/C",[19],86.8%
same,"viability, T/C",[20],85.7%
same,"viability, T/C",[21],95.5%
same,"viability, T/C",[22],78.6%
same,"viability, T/C",[23],83.2%
same,"viability, T/C",[24],80.4%
same,"viability, T/C",[25],85.4%
same,"viability, T/C",[26],89.1%
same,"viability, T/C",[27],87.4%
same,"viability, T/C",[28],84.8%
same,"viability, T/C",[29],78.4%
same,"viability, T/C",[30],75%
CCN(c1cc(-c2ccc(CN3CCOCC3)cc2)cc(C(=O)NCc2c(C)cc(C)[nH]c2=O)c1C)C1CCOCC1 + Cc1ccccc1N=Nc1ccc(NC(=O)c2ccnn2C)c(C)c1,IC50,second compound 0.1 µM,> 3 µM
same,IC50,second compound 0.316 µM,> 3 µM
same,IC50,second compound 1 µM,> 3 µM
same,IC50,second compound 3.16 µM,> 3 µM
same,IC50,second compound 10 µM,> 3 µM
same,"viability, T/C",[31],91.2%
same,"viability, T/C",[32],88.2%
same,"viability, T/C",[33],93.7%
same,"viability, T/C",[34],84.5%
same,"viability, T/C","second compound 0.1 µM, first compound 0.949 µM",90.8%
same,"viability, T/C","second compound 0.1 µM, first compound 3 µM",90.4%
same,"viability, T/C",[35],82.1%
same,"viability, T/C",[36],93.3%
same,"viability, T/C",[37],86.2%
same,"viability, T/C",[38],77.3%
same,"viability, T/C","second compound 0.316 µM, first compound 0.949 µM",86.6%
same,"viability, T/C","second compound 0.316 µM, first compound 3 µM",84.2%
same,"viability, T/C",[39],88.6%
same,"viability, T/C",[40],83.2%
same,"viability, T/C",[41],89.5%
same,"viability, T/C",[42],94.3%
same,"viability, T/C","second compound 1 µM, first compound 0.949 µM",81%
same,"viability, T/C","second compound 1 µM, first compound 3 µM",99.6%
same,"viability, T/C",[43],76%
same,"viability, T/C",[44],77%
same,"viability, T/C",[45],77.2%
same,"viability, T/C",[46],74.5%
same,"viability, T/C","second compound 3.16 µM, first compound 0.949 µM",81%
same,"viability, T/C","second compound 3.16 µM, first compound 3 µM",82%
same,"viability, T/C",[47],72.2%
same,"viability, T/C",[48],84.3%
same,"viability, T/C",[49],85.9%
same,"viability, T/C",[50],71.7%
same,"viability, T/C","second compound 10 µM, first compound 0.949 µM",77.9%
same,"viability, T/C","second compound 10 µM, first compound 3 µM",73.1%
Cn1ncnc1C1c2n[nH]c(=O)c3cc(F)cc(c23)NC1c1ccc(F)cc1 (stereo not given) + Cc1ccccc1N=Nc1ccc(NC(=O)c2ccnn2C)c(C)c1,IC50,second compound 0.1 µM,> 0.1 µM
same,IC50,second compound 0.316 µM,> 0.1 µM
same,IC50,second compound 1 µM,> 0.1 µM
same,IC50,second compound 3.16 µM,> 0.1 µM
same,IC50,second compound 10 µM,> 0.1 µM
same,"viability, T/C","second compound 0.1 µM, first compound 0.000316 µM",97.3%
same,"viability, T/C","second compound 0.1 µM, first compound 0.001 µM",106%
same,"viability, T/C","second compound 0.1 µM, first compound 0.00316 µM",101%
same,"viability, T/C","second compound 0.1 µM, first compound 0.01 µM",101%
same,"viability, T/C",[1],103%
same,"viability, T/C",[2],90.2%
same,"viability, T/C","second compound 0.316 µM, first compound 0.000316 µM",98.2%
same,"viability, T/C","second compound 0.316 µM, first compound 0.001 µM",107%
same,"viability, T/C","second compound 0.316 µM, first compound 0.00316 µM",89%
same,"viability, T/C","second compound 0.316 µM, first compound 0.01 µM",98.9%
same,"viability, T/C",[7],97.8%
same,"viability, T/C",[8],88.8%
same,"viability, T/C","second compound 1 µM, first compound 0.000316 µM",105%
same,"viability, T/C","second compound 1 µM, first compound 0.001 µM",92.1%
same,"viability, T/C","second compound 1 µM, first compound 0.00316 µM",100%
same,"viability, T/C","second compound 1 µM, first compound 0.01 µM",96.7%
same,"viability, T/C",[13],106%
same,"viability, T/C",[14],92.5%
same,"viability, T/C","second compound 3.16 µM, first compound 0.000316 µM",93.3%
same,"viability, T/C","second compound 3.16 µM, first compound 0.001 µM",106%
same,"viability, T/C","second compound 3.16 µM, first compound 0.00316 µM",97.7%
same,"viability, T/C","second compound 3.16 µM, first compound 0.01 µM",91%
same,"viability, T/C",[19],94.1%
same,"viability, T/C",[20],102%
same,"viability, T/C","second compound 10 µM, first compound 0.000316 µM",99.8%
same,"viability, T/C","second compound 10 µM, first compound 0.001 µM",101%
same,"viability, T/C","second compound 10 µM, first compound 0.00316 µM",103%
same,"viability, T/C","second compound 10 µM, first compound 0.01 µM",92.2%
same,"viability, T/C",[25],89.4%
same,"viability, T/C",[26],103%
Nc1ncn(C2CC(O)C(CO)S2)c(=O)n1 (stereo not given) + Cc1ccccc1N=Nc1ccc(NC(=O)c2ccnn2C)c(C)c1,IC50,second compound 0.1 µM,> 0.3 µM
same,IC50,second compound 0.316 µM,> 0.3 µM
same,IC50,second compound 1 µM,> 0.3 µM
same,IC50,second compound 3.16 µM,> 0.3 µM
same,IC50,second compound 10 µM,> 0.3 µM
same,"viability, T/C","second compound 0.1 µM, first compound 0.000949 µM",102%
same,"viability, T/C","second compound 0.1 µM, first compound 0.003 µM",87.6%
same,"viability, T/C",[31],82.9%
same,"viability, T/C",[32],71.4%
same,"viability, T/C",[33],85.5%
same,"viability, T/C",[34],75.5%
same,"viability, T/C","second compound 0.316 µM, first compound 0.000949 µM",85.5%
same,"viability, T/C","second compound 0.316 µM, first compound 0.003 µM",81.7%
same,"viability, T/C",[35],80.4%
same,"viability, T/C",[36],81.7%
same,"viability, T/C",[37],87.2%
same,"viability, T/C",[38],74.7%
same,"viability, T/C","second compound 1 µM, first compound 0.000949 µM",85.7%
same,"viability, T/C","second compound 1 µM, first compound 0.003 µM",84.4%
same,"viability, T/C",[39],86.3%
same,"viability, T/C",[40],78.3%
same,"viability, T/C",[41],80.4%
same,"viability, T/C",[42],85.4%
same,"viability, T/C","second compound 3.16 µM, first compound 0.000949 µM",83.4%
same,"viability, T/C","second compound 3.16 µM, first compound 0.003 µM",83.2%
same,"viability, T/C",[43],83.1%
same,"viability, T/C",[44],87%
same,"viability, T/C",[45],82.4%
same,"viability, T/C",[46],79.3%
same,"viability, T/C","second compound 10 µM, first compound 0.000949 µM",76%
same,"viability, T/C","second compound 10 µM, first compound 0.003 µM",69.9%
same,"viability, T/C",[47],92.1%
same,"viability, T/C",[48],81.2%
same,"viability, T/C",[49],83.3%
same,"viability, T/C",[50],76.5%
